{"source": "patent US20080032889A1", "about": "“6-(2-Fluorophenyl)-Triazolopyrimidines, Method For The Production Thereof, Use Thereof For Controlling Harmful Fungi, And Agents Containing The Same” (BASF AKTIENGESELLSCHAFT, priority 2004, published 2008)", "test_system": "Botrytis cinerea", "assay": "Activity against gray mold caused by Botrytis cinerea on bell pepper plants, protective application", "assay_type": "in vivo", "settings": "200 ppm, protective spray, bell pepper \"California Wonder\", after about 3 days; untreated plants 100% infected", "experimental": "Comparative Experiment 1—Activity Against Gray Mold Caused by Botrytis cinerea, Protective Application Potted bell pepper plants of the cultivar “California Wonder” were sprayed to runoff point with an aqueous suspension having the active compound concentration stated below. The suspension or emulsion had been prepared by dilution with water from a stock solution comprising 5% of active compound, 94% of cyclohexanone and 1% of emulsifier (Tween 20). 2-5 hours after the spray coating had dried on, the plants were dusted with spores of gray mold (Botrytis cinerea). The test plants were then incubated in a humid chamber at temperatures between 20 and 22° C. and at 100% relative atmospheric humidity. After about 3 days, the extent of the pathogen development was determined visually in % infection of the entire leaf area."}
{"smiles": "CC(C)Nc1c(-c2ccccc2F)c(Cl)nc2ncnn12", "note": "[compound A]", "values": [{"measurement": "infection of the entire leaf area", "value": 90, "unit": "%"}]}
